Measurements: patent US11091514B2, “Peptide macrocycles and use thereof in the treatment of bacterial infections” (Hoffmann-La Roche Inc., priority 2017, dated 2021)

Test system: A. baumannii strain ATCC19606
Assay type: cell-based, Acinetobacter baumannii
Conditions: ATCC19606, 20 h
Procedure: The in vitro antimicrobial activity of the compounds was determined through microbroth minimum inhibitory concentration (MIC) methodology performed according to the Clinical and Laboratory Standard Institute guidelines (CLSI-M07-A9 January 2012. Methods for Dilution Antimicrobial Susceptibility Tests for Bacteria That Grow Aerobically; Approved Standard Ninth Edition, Clinical and Laboratory Standards Institute, Wayne/PA, US and the CLSI-M100-S24 January 2014. Performance Standards for Antimicrobial Susceptibility Testing; Approved Standard—Fourth Informational Supplement, Clinical and Laboratory Standards Institute, Wayne/PA, US).
The compound stock solution was freshly prepared at 10× the required top concentration for the MIC determination, i.e. at 1280 mg/L, by reconstitution of the dry compound in 50:50 water:DMSO.
Polystyrene non-treated 96 wells microtiter plates were used for preparing panel containing compound serial twofold diluted at two times the final testing concentration (e.g. range from 64 to 0.06 μg/ml) in cation adjusted Mueller Hinton broth medium (CAMHB).
Inoculum was prepared by the “direct colony suspension method”. Colonies of A. baumannii ATCC19606 or clinical isolates were suspended in saline solution and adjusted to 0.5 McFarland, diluted 100 times in CAMHB broth and 50 μl added to each well (final concentration of cells˜5×10^(5) CFU/ml and Final volume/well of 100 μl). Microtiter plates were sealed and incubated at 35±2° C.
MICs values were read after 20 hours of incubation and recorded as the lowest concentration of the antimicrobial that inhibits more or equal to 80% of growth of the organism as detected by the unaided eye and using a microtiter plate optical density reader (OD 600 nm).
Table 1 provides the minimum inhibitory concentration (MIC) in microgram per milliliter of the compounds of present invention obtained against the A. baumannii strain ATCC19606.

SMILES	ATCC19606 MIC (minimum inhibitory concentration) [µg/mL]
CN1C(=O)[C@H](CCCCN)NC(=O)[C@H](CCCN)NCc2cccc(c2)-c2ccccc2CNC(=O)[C@@H]1Cc1c[nH]c2ccccc12 [Example 1, (11S,14S,17S)-14-(4-Amino-butyl)-17-(3-amino-propyl)-11-(1H-indol-3-ylmethyl)-12-methyl-9,12,15,18-tetraaza-tricyclo[18.3.1.0*2,7]tetracosa-1(24),2(7),3,5,20,22-hexaene-10,13,16-trione]	32
CN1C(=O)[C@H](CCCCN)NC(=O)[C@H](CCCN)NCc2cccc(c2)-c2ccc(Cl)cc2CNC(=O)[C@@H]1Cc1c[nH]c2ccccc12 [Example 5, (11S,14S,17S)-14-(4-Amino-butyl)-17-(3-amino-propyl)-5-chloro-11-(1H-indol-3-ylmethyl)-12-methyl-9,12,15,18-tetraaza-tricyclo[18.3.1.0*2,7]tetracosa-1(23),2(7),3,5,20(24),21-hexaene-10,13,16-trione]	4
CN1C(=O)[C@H](CCCCN)NC(=O)[C@H](CCCN)NCc2cccc(c2)-c2cccc(Cl)c2CNC(=O)[C@@H]1Cc1c[nH]c2ccccc12 [Example 6, (11S,14S,17S)-14-(4-Amino-butyl)-17-(3-amino-propyl)-6-chloro-11-(1H-indol-3-ylmethyl)-12-methyl-9,12,15,18-tetraaza-tricyclo[18.3.1.0*2,7]tetracosa-1(23),2(7),3,5,20(24),21-hexaene-10,13,16-trione]	32
CN1C(=O)[C@H](CCCCN)NC(=O)[C@H](CCCN)NCc2cccc(c2)-c2cc(C(F)(F)F)ccc2CNC(=O)[C@@H]1Cc1c[nH]c2ccccc12 [Example 8, (11S,14S,17S)-14-(4-Amino-butyl)-17-(3-amino-propyl)-11-(1H-indol-3-ylmethyl)-12-methyl-4-trifluoromethyl-9,12,15,18-tetraaza-tricyclo[18.3.1.0*2,7]tetracosa-1(24),2(7),3,5,20,22-hexaene-10,13,16-trione]	4
COc1ccc2c(c1)CNC(=O)[C@H](Cc1c[nH]c3ccccc13)N(C)C(=O)[C@H](CCCCN)NC(=O)[C@H](CCCN)NCc1cccc-2c1 [Example 9, (11S,14S,17S)-14-(4-Amino-butyl)-17-(3-amino-propyl)-11-(1H-indol-3-ylmethyl)-5-methoxy-12-methyl-9,12,15,18-tetraaza-tricyclo[18.3.1.0*2,7]tetracosa-1(23),2(7),3,5,20(24),21-hexaene-10,13,16-trione]	4
CN1C(=O)[C@H](CCCCN)NC(=O)[C@H](CCCN)NCc2cccc(c2F)-c2ccccc2CNC(=O)[C@@H]1Cc1c[nH]c2ccccc12 [Example 10, (11S,14S,17S)-14-(4-Amino-butyl)-17-(3-amino-propyl)-24-fluoro-11-(1H-indol-3-ylmethyl)-12-methyl-9,12,15,18-tetraaza-tricyclo[18.3.1.0*2,7]tetracosa-1(23),2(7),3,5,20(24),21-hexaene-10,13,16-trione]	16
CN1C(=O)[C@H](CCCCN)NC(=O)[C@H](CCCN)NCc2ccnc(c2)-c2ccc(Cl)cc2CNC(=O)[C@@H]1Cc1c[nH]c2ccccc12 [Example 11, (11S,14S,17S)-14-(4-Amino-butyl)-17-(3-amino-propyl)-5-chloro-11-(1H-indol-3-ylmethyl)-12-methyl-9,12,15,18,23-pentaaza-tricyclo[18.3.1.0*2,7]tetracosa-1(23),2(7),3,5,20(24),21-hexaene-10,13,16-trione]	32

The next lines start with the values.

ATCC19606 MIC (minimum inhibitory concentration) [µg/mL]	SMILES
2	CN1C(=O)[C@H](CCCCN)NC(=O)[C@H](CCCN)NCc2cccc(c2)-c2c(cccc2C(F)(F)F)CNC(=O)[C@@H]1Cc1c[nH]c2ccccc12 [Example 2, (11S,14S,17S)-14-(4-Amino-butyl)-17-(3-amino-propyl)-11-(1H-indol-3-ylmethyl)-12-methyl-3-trifluoromethyl-9,12,15,18-tetraaza-tricyclo[18.3.1.0*2,7]tetracosa-1(24),2(7),3,5,20,22-hexaene-10,13,16-trione]
0.5	CN1C(=O)[C@H](CCCCN)NC(=O)[C@H](CCCN)NCc2cccc(c2)-c2ccc(C(F)(F)F)cc2CNC(=O)[C@@H]1Cc1c[nH]c2ccccc12 [Example 3, (11S,14S,17S)-14-(4-Amino-butyl)-17-(3-amino-propyl)-11-(1H-indol-3-ylmethyl)-12-methyl-5-trifluoromethyl-9,12,15,18-tetraaza-tricyclo[18.3.1.0*2,7]tetracosa-1(24),2(7),3,5,20,22-hexaene-10,13,16-trione]
32	Cc1cccc2c1-c1cccc(c1)CN[C@@H](CCCN)C(=O)N[C@@H](CCCCN)C(=O)N(C)[C@@H](Cc1c[nH]c3ccccc13)C(=O)NC2 [Example 4, (11S,14S,17S)-14-(4-Amino-butyl)-17-(3-amino-propyl)-11-(1H-indol-3-ylmethyl)-3,12-dimethyl-9,12,15,18-tetraaza-tricyclo[18.3.1.0*2,7]tetracosa-1(23),2(7),3,5,20(24),21-hexaene-10,13,16-trione]
1	Cc1ccc2c(c1)CNC(=O)[C@H](Cc1c[nH]c3ccccc13)N(C)C(=O)[C@H](CCCCN)NC(=O)[C@H](CCCN)NCc1cccc-2c1 [Example 7, (11S,14S,17S)-14-(4-Amino-butyl)-17-(3-amino-propyl)-11-(1H-indol-3-ylmethyl)-5,12-dimethyl-9,12,15,18-tetraaza-tricyclo[18.3.1.0*2,7]tetracosa-1(23),2(7),3,5,20(24),21-hexaene-10,13,16-trione]
